Key:
Format in all cases: physicochemical
[1] = stability of the solid form (air, moisture, heat)
[2] = solubility in various organic solvents and in water; details: compared with crystalline forms A and L of Olaparib
hygroscopicity = assay: hygroscopicity

## O=C(c1cc(Cc2n[nH]c(=O)c3ccccc23)ccc1F)N1CCN(C(=O)C2CC2)CC1 [4-[3-(4-cyclopropanecarbonyl-piperazine-1-carbonyl)-4-fluorobenzyl]-2H-phthalazin-2-one]
[1]; air and heat, long time (30 days)
  stability to air and heat: stable to air and heat for a long time (30 days)
[1]; water-saturated environment
  stability when exposed to a water-saturated environment: maintains its original physicochemical characteristics

## O=C(c1cc(Cc2n[nH]c(=O)c3ccccc23)ccc1F)N1CCN(C(=O)C2CC2)CC1 [amorphous form of Olaparib, 4-[3-(4-cyclopropanecarbonyl-piperazine-1-carbonyl)-4-fluorobenzyl]-2H-phthalazin-2-one]
[2]
  solubility in various organic solvents and in water: better solubility
[1]; exposed to the moisture in the air
  stability if exposed to the moisture in the air: stable
hygroscopicity
  hygroscopicity: not hygroscopic
